Reference: paper PMC8584173, “The Cytotoxic Effect of Copper (II) Complexes with Halogenated 1,3-Disubstituted Arylthioureas on Cancer and Bacterial Cells” (International Journal of Molecular Sciences, 2021)

What was measured:
[1] = tested on: S. aureus 496; assay: MIC, hospital MRSA strain; assay type: cell-based, Staphylococcus aureus; details: hospital MRSA S. aureus 496
Protocol: (§1) The antimicrobial activity of the compounds was tested on Gram-positive bacteria (Staphylococcus aureus NCTC 4163, Staphylococcus aureus ATCC 25923, Staphylococcus aureus ATCC 6538, Staphylococcus aureus ATCC 29213, Staphylococcus epidermidis ATCC 12228, Staphylococcus epidermidis ATCC 35984), Gram-negative rods (Escherichia coli ATCC 10538, Escherichia coli ATCC 25922, Pseudomonas aeruginosa ATCC 15442, Pseudomonas aeruginosa ATCC 27863) and yeasts (Candida albicans ATCC 10231, Candida albicans ATCC 90028, Candida parapsilosis ATCC 22019). Hospital methicillin-resistant strains of Staphylococcus aureus and Staphylococcus epidermidis were obtained from the collection of the Department of Pharmaceutical Microbiology, Medical University of Warsaw, Poland.
(§2) Antifungal activities were assessed using Mueller–Hinton agar + 2% glucose and 0.5 µg/mL methylene blue dye medium. Sterile filter paper discs (9 mm diameter, Whatman Number 3 chromatography paper) were dripped with tested compound solutions (in dimethylsulfoxide, DMSO) to load 400 μg of a given compound per disc. Dry discs were placed on the surface of appropriate agar medium. The results (diameter of the growth inhibition zone) were read after 18 h of incubation at 35 °C. Minimal inhibitory concentration (MIC) was tested by the twofold serial microdilution method (in 96-well microtiter plates) using Mueller–Hinton broth medium (Beckton Dickinson) for bacteria or RPMI-1640 medium for Candida species, according to CLSI guidelines. The stock solution of tested agent was prepared in DMSO and diluted in sterile water. […] The final inoculum of all studied microorganisms was 10^5 CFU/ mL^−1 (colony forming units per ml). Minimal inhibitory concentrations (the lowest concentration of a tested agent that prevents visible growth of a microorganism) were read after 18 h (bacteria) or 24 h (yeasts) of incubation at 35 °C.

[2] = tested on: S. aureus 514; assay: MIC, hospital MRSA strain; assay type: cell-based, Staphylococcus aureus; details: hospital MRSA S. aureus 514
Protocol: as §1, §2

[3] = tested on: S. aureus 537; assay: MIC, hospital MRSA strain; assay type: cell-based, Staphylococcus aureus; details: hospital MRSA S. aureus 537
Protocol: as §1, §2

[4] = tested on: S. aureus 481; assay: MIC, hospital MRSA strain; assay type: cell-based, Staphylococcus aureus; details: for MIC: hospital MRSA S. aureus 481; for times more active than ciprofloxacin: S. aureus 481
Protocol: as §1, §2

[5] = tested on: S. aureus 585; assay: MIC, hospital MRSA strain; assay type: cell-based, Staphylococcus aureus; details: hospital MRSA S. aureus 585
Protocol: as §1, §2

[6] = tested on: S. aureus 495; assay: MIC, hospital MRSA strain; assay type: cell-based, Staphylococcus aureus; details: hospital MRSA S. aureus 495
Protocol: as §1, §2

[7] = tested on: S. aureus 498; assay: MIC, hospital MRSA strain; assay type: cell-based, Staphylococcus aureus; details: hospital MRSA S. aureus 498
Protocol: as §1, §2

[8] = tested on: S. aureus 573; assay: MIC, hospital MRSA strain; assay type: cell-based, Staphylococcus aureus; details: hospital MRSA S. aureus 573
Protocol: as §1, §2

[9] = tested on: S. aureus 522; assay: MIC, hospital MRSA strain; assay type: cell-based, Staphylococcus aureus; details: hospital MRSA S. aureus 522
Protocol: as §1, §2

[10] = tested on: S. epidermidis 436; assay: MIC, hospital MRSE strain; assay type: cell-based, Staphylococcus epidermidis; details: hospital MRSE S. epidermidis 436
Protocol: as §1, §2

[11] = tested on: S. epidermidis 437; assay: MIC, hospital MRSE strain; assay type: cell-based, Staphylococcus epidermidis; details: hospital MRSE S. epidermidis 437
Protocol: as §1, §2

[12] = tested on: S. epidermidis 513; assay: MIC, hospital MRSE strain; assay type: cell-based, Staphylococcus epidermidis; details: hospital MRSE S. epidermidis 513
Protocol: as §1, §2

[13] = tested on: S. epidermidis 424; assay: MIC, hospital MRSE strain; assay type: cell-based, Staphylococcus epidermidis; details: hospital MRSE S. epidermidis 424
Protocol: as §1, §2

[14] = tested on: S. epidermidis 438; assay: MIC, hospital MRSE strain; assay type: cell-based, Staphylococcus epidermidis; details: hospital MRSE S. epidermidis 438
Protocol: as §1, §2

[15] = tested on: S. epidermidis 433; assay: MIC, hospital MRSE strain; assay type: cell-based, Staphylococcus epidermidis; details: hospital MRSE S. epidermidis 433
Protocol: as §1, §2

[16] = tested on: S. epidermidis 420; assay: MIC, hospital MRSE strain; assay type: cell-based, Staphylococcus epidermidis; details: hospital MRSE S. epidermidis 420
Protocol: as §1, §2

[17] = tested on: S. epidermidis 515; assay: MIC, hospital MRSE strain; assay type: cell-based, Staphylococcus epidermidis; details: hospital MRSE S. epidermidis 515
Protocol: as §1, §2

[18] = tested on: S. epidermidis 435; assay: MIC, hospital MRSE strain; assay type: cell-based, Staphylococcus epidermidis; details: hospital MRSE S. epidermidis 435
Protocol: as §1, §2

[19] = tested on: S. epidermidis 471; assay: MIC, hospital MRSE strain; assay type: cell-based, Staphylococcus epidermidis; details: hospital MRSE S. epidermidis 471
Protocol: as §1, §2

[20] = tested on: S. epidermidis 510; assay: MIC, hospital MRSE strain; assay type: cell-based, Staphylococcus epidermidis; details: hospital MRSE S. epidermidis 510
Protocol: as §1, §2

[21] = tested on: S. epidermidis 423; assay: MIC, hospital MRSE strain; assay type: cell-based, Staphylococcus epidermidis; details: hospital MRSE S. epidermidis 423
Protocol: as §1, §2

[22] = tested on: S. epidermidis 511; assay: MIC, hospital MRSE strain; assay type: cell-based, Staphylococcus epidermidis; details: hospital MRSE S. epidermidis 511
Protocol: as §1, §2

[23] = tested on: S. epidermidis 469; assay: MIC, hospital MRSE strain; assay type: cell-based, Staphylococcus epidermidis; details: hospital MRSE S. epidermidis 469
Protocol: as §1, §2

[24] = tested on: S. epidermidis 432; assay: MIC, hospital MRSE strain; assay type: cell-based, Staphylococcus epidermidis; details: hospital MRSE S. epidermidis 432
Protocol: as §1, §2

[25] = tested on: S. epidermidis 431; assay: MIC, hospital MRSE strain; assay type: cell-based, Staphylococcus epidermidis; details: hospital MRSE S. epidermidis 431
Protocol: as §1, §2

[26] = tested on: Bacillus subtilis M45 (rec−); assay: Bacillus subtilis rec-assay, M45; assay type: cell-based; details: B. subtilis M45; 256 µg per disc (NOQ 2 µg per disc)
Protocol: DNA-damaging activity of compounds was tested by rec-assay using two genetically modified Bacillus subtilis strains: M45 (rec^−) and H17 (rec^+). Tested compounds were dissolved in DMSO, and 10 µL of each solution was dripped onto sterile cotton discs (Rotilabo) to load 256 µg of a given compound per 9 mm disc. Discs were placed on the surface nutrient agar plates (Difco), inoculated with 100 µL of bacterial overnight culture and incubated […] at 35 °C. After incubation, the growth inhibition zones were measured. […] Results of the genotoxicity test were estimated after 18 h of incubation at 35 °C by comparing the diameter of the inhibition zone on the B. subtilis M45 (rec^−) strain with that on the B. subtilis H17 (rec^+) strain.

[27] = tested on: hospital S. epidermidis (MRSE); assay: MIC, hospital S. epidermidis; assay type: cell-based, Staphylococcus epidermidis; details: for times more effective than the reference chemotherapeutic (ciprofloxacin): S. epidermidis 424, 471, 511, 515 and 431–433 isolates
Protocol: as §1, §2

O=[N+]([O-])c1cc(NC2=[N+](c3ccc(Cl)c([N+](=O)[O-])c3)[Cu-2]3([S]2)[S]C(Nc2ccc(Cl)c([N+](=O)[O-])c2)=[N+]3c2ccc(Cl)c([N+](=O)[O-])c2)ccc1Cl [Compound 6, Copper (II) complex with 1,3-bis(4-chloro-3-nitrophenyl)thiourea]
64 µg/mL: MIC [12] | MIC [13] | MIC [15] | MIC [16] | MIC [17] | MIC [19] | MIC [20] | MIC [21] | MIC [22] | MIC [23] | MIC [24] | MIC [25]
15 mm: inhibition zone diameter [26]
32 µg/mL: MIC [1] | MIC [2] | MIC [3] | MIC [4] | MIC [5] | MIC [6] | MIC [7] | MIC [8] | MIC [9]
128 µg/mL: MIC [10] | MIC [11] | MIC [14] | MIC [18]

O=[N+]([O-])c1cc([N+]2=C(Nc3ccc(Br)cc3)[S][Cu-2]23[S]C(Nc2ccc(Br)cc2)=[N+]3c2ccc(Cl)c([N+](=O)[O-])c2)ccc1Cl [Compound 3, Copper (II) complex with 1-(4-bromophenyl)-3-(4-chloro-3-nitrophenyl)thiourea]
4 µg/mL: MIC [1] | MIC [2] | MIC [3] | MIC [4] | MIC [5] | MIC [6] | MIC [7] | MIC [8] | MIC [9] | MIC [10] | MIC [12] | MIC [13] | MIC [14] | MIC [15] | MIC [18] | MIC [20] | MIC [21] | MIC [22] | MIC [23] | MIC [24] | MIC [25]
4 to 8 µg/mL: MIC ([27]; most of hospital S. epidermidis species)
15 mm: inhibition zone diameter [26]
8 µg/mL: MIC [11] | MIC [16] | MIC [17] | MIC [19]
64 times: times more active than ciprofloxacin [4]

O=[N+]([O-])c1cc([N+]2=C(Nc3ccc(F)c(Cl)c3)[S][Cu-2]23[S]C(Nc2ccc(F)c(Cl)c2)=[N+]3c2ccc(Cl)c([N+](=O)[O-])c2)ccc1Cl [Compound 4, Copper (II) complex with 1-(3-chloro-4-fluorophenyl)-3-(4-chloro-3-nitrophenyl)thiourea]
2–16 times: times more effective than the reference chemotherapeutic (ciprofloxacin) [27]
64 times: times more active than ciprofloxacin [4]
4 µg/mL: MIC [2] | MIC [3] | MIC [4] | MIC [5] | MIC [6] | MIC [7] | MIC [8] | MIC [9] | MIC [15] | MIC [16] | MIC [17] | MIC [21] | MIC [22] | MIC [23]
8 µg/mL: MIC [1] | MIC [10] | MIC [11] | MIC [12] | MIC [13] | MIC [14] | MIC [18] | MIC [19] | MIC [20] | MIC [24] | MIC [25]
18 mm: inhibition zone diameter [26]

O=[N+]([O-])c1cc([N+]2=C(Nc3ccccc3F)[S][Cu-2]23[S]C(Nc2ccccc2F)=[N+]3c2ccc(Cl)c([N+](=O)[O-])c2)ccc1Cl [Compound 7, Copper (II) complex with 1-(2-fluorophenyl)-3-(4-chloro-3-nitrophenyl)thiourea]
4 µg/mL: MIC [4] | MIC [7]
64 times: times more active than ciprofloxacin [4]
8 µg/mL: MIC [1] | MIC [2] | MIC [3] | MIC [5] | MIC [6] | MIC [8] | MIC [9] | MIC [10] | MIC [11] | MIC [12] | MIC [13] | MIC [14] | MIC [15] | MIC [16] | MIC [17] | MIC [18] | MIC [19] | MIC [20] | MIC [21] | MIC [22] | MIC [23] | MIC [24] | MIC [25]
2–16 times: times more effective than the reference chemotherapeutic (ciprofloxacin) [27]
18 mm: inhibition zone diameter [26]

O=[N+]([O-])c1cc([N+]2=C(Nc3ccc(Cl)c(Cl)c3)[S][Cu-2]23[S]C(Nc2ccc(Cl)c(Cl)c2)=[N+]3c2ccc(Cl)c([N+](=O)[O-])c2)ccc1Cl [Compound 5, Copper (II) complex with 1-(4-chloro-3-nitrophenyl)-3-(3,4-dichlorophenyl)thiourea]
32 µg/mL: MIC [1] | MIC [2] | MIC [10] | MIC [11] | MIC [13] | MIC [14] | MIC [15] | MIC [16] | MIC [17] | MIC [18] | MIC [19] | MIC [21] | MIC [22] | MIC [23] | MIC [24]
16 µg/mL: MIC [3] | MIC [4] | MIC [5] | MIC [6] | MIC [7] | MIC [8] | MIC [9] | MIC [12] | MIC [20] | MIC [25]
18 mm: inhibition zone diameter [26]
